We go through 11 molecules from US4377583A, “N-Methyl-D-glucamine salt of with 3,4-dihydro-5-methyl-6-(2-methylpropyl)-4-oxothieno[2,3-d]pyrimidine-2-c arboxylic acid” (Mead Johnson & Company, priority 1981, dated 1983).

A short description of data set [1]: Water solubility of isolated salts of MJ 12175 (redissolution). Conditions: for H2O Solubility isolated salt: room temperature (about 25° C.). The class given is physicochemical. From the text: (§1) Many conventional pharmaceutically acceptable amine salts of MJ 12175 are not well suited for the present use due to limited solubility, lack of stability, pH ranges differing sufficiently from physiological pH (~7.4) to the extent that irritation of tissue becomes a problem.
(§2) The amine salts of MJ 12175 shown in Table 1 were first prepared in situ by adding the amine to a suspension of MJ 12175 in a quantity of water sufficient to give a 4% aqueous solution of the resulting salt. When a precipitate formed on amine addition indicating relative insolubility, pH was not measured as in the cases of salts 4 through 8 in Table 1. Although solutions were obtained with the other salts formed in situ supersaturation of these solutions appears likely since the four salts (Nos. 2, 3, 9, 11) which were isolated were less than 4% soluble on redissolution. […] The three crystalline salts were the only examples where solid precipitated from the in situ solutions on standing. Of the three crystalline isolated amine salts of MJ 12175, the glucamine salt best meets the water solubility and pH criteria.

A short description of a further data set: pH of salts of MJ 12175. The class given is physicochemical. Conditions: room temperature (about 25° C.).
Text: as §1, §2

Data set [2] can be described thus: Stability of aqueous solutions on extended storage.
Data set [3] is described as follows: Water solubility of salts of MJ 12175 formed in situ (4% aqueous solution). It counts as physicochemical. Conditions: room temperature (about 25° C.); precipitate formed on amine addition, indicating relative insolubility.
Text: as §1, §2

Data set [4] is described as follows: Physical state of isolated salts. It counts as physicochemical.
Text: as §2

The conditions of data set [5]: cited from earlier work.

Structures can show the parent of a compound that is named as a salt.

For orientation: solubility means how much of the substance goes into solution per volume.

`Cc1c(CC(C)C)sc2nc(C(=O)O)[nH]c(=O)c12` [MJ 12175, 3,4-Dihydro-5-methyl-6-(2-methylpropyl)-4-oxothieno[2,3-d]pyrimidine-2-carboxylic Acid]: the “H2O Solubility isolated salt” value in data set [1] (listed as 1) was determined as 8900 µg/mL. Further, the pH in “pH of salts of MJ 12175” (listed as 1) was 11.22.

Take `Cc1c(CC(C)C)sc2nc(C(=O)O)[nH]c(=O)c12` [Salt No. 2, 3,4-Dihydro-5-methyl-6-(2-methylpropyl)-4-oxothieno[2,3-d]pyrimidine-2-carboxylic Acid N-methyl-D-glucamine Salt]: the “H2O Solubility isolated salt” value in data set [1] stood at 12000 µg/mL. For the same molecule, the solubility in data set [1] (water, isolated salts, redissolution) was under 40000 µg/mL. The “stability of aqueous solutions” value in data set [2] is listed as “demonstrated the stability of its aqueous solutions on extended storage”. Further, the pH in “pH of salts of MJ 12175” worked out at 6.4.

As for `Cc1c(CC(C)C)sc2nc(C(=O)O)[nH]c(=O)c12` [compound 3], in data set [1] (isolated salts, redissolution), the “solubility of isolated salts on redissolution” value (shortened to “solubility of isolated salts”) is “less than 4%”. Besides, the “H2O Solubility isolated salt” value in data set [1] was 5000 µg/mL. Besides, the pH in the data set “pH of salts of MJ 12175” is listed as 4.7.

`Cc1c(CC(C)C)sc2nc(C(=O)O)[nH]c(=O)c12` [compound 4]: in data set [3], the “H2O Solubility in situ (ppt)” value is “ppt”.

As to `Cc1c(CC(C)C)sc2nc(C(=O)O)[nH]c(=O)c12` [compound 9], the “solubility of isolated salts” value in data set [1] (isolated salts, redissolution) is reported as “less than 4%”. Also, in data set [1], the “H2O Solubility isolated salt” value was under 1000 µg/mL. Also, the pH in “pH of salts of MJ 12175” is 6.81.

With `Cc1c(CC(C)C)sc2nc(C(=O)O)[nH]c(=O)c12` [compound 10], the pH in “pH of salts of MJ 12175” worked out at 4.55.

As to `Cc1c(CC(C)C)sc2nc(C(=O)O)[nH]c(=O)c12` [compound 11], the “physical state of isolated salt” value in data set [4] was “remained a non-crystallinetar during attempted purification”. For the same molecule, the “solubility of isolated salts” value in data set [1] (isolated salts, redissolution) is given as “less than 4%”. The pH in “pH of salts of MJ 12175” stood at 6.42.

For `Cc1c(CC(C)C)sc2nc(C(=O)O)[nH]c(=O)c12` [compound 12], the pH in “pH of salts of MJ 12175” worked out at 6.29.

As to `Cc1c(CC(C)C)sc2nc(C(=O)O)[nH]c(=O)c12` [compound 13], the pH in the data set “pH of salts of MJ 12175” was 8.08.

`Cc1c(CC(C)C)sc2nc(C(=O)O)[nH]c(=O)c12` [compound 14]: in “pH of salts of MJ 12175”, the pH is 9.59.

For the molecule `Cc1c(CC(C)C)sc2nc(C(=O)O)[nH]c(=O)c12` [potassium salt], in data set [5] (not desirable for nasal instillation), the pH of solutions entry was “alkaline pH”. In addition, the water solubility result in data set [5] (relative to MJ 12175) is reported as “improved water solubility”.
